# According to patent US6515122B1, “Tetracyclic benzimidazole derivatives and combinatorial libraries thereof” (Lion Bioscience AG, priority 1999, dated 2003):
# System: Streptococcus pyogenes (ATCC# 97-03 14289)
# Assay: Anti-microbial screen (growth inhibition, OD 570 nm)
# Format: cell-based
# Settings: ATCC97, compounds at 170 μg/ml, Todd Hewitt Broth, read at 4 hrs
# Procedure: Streptococcus pyogenes (ATCC# 97-03 14289) were grown in Todd Hewitt Broth (THB) (Difco Laboratories #0492-17-6) overnight until they reached an optical density of (OD=0.636@ 570 nm) by reading 0.1 ml in a 96 well microtiter plate in a Molecular Devices Thermomax. This preparation was kept frozen as stocks in 30% v/v glycerol in 1.5 ml aliquots at −70 C° until used. Prior to screening, 1.5 ml aliquots were thawed and diluted into 50 ml THB. 200 μl of this dilution was added to 92 wells of microtiter plate. To three wells THB (200 μl) was added to serve as a blank and a sterility control. Test compounds in DMSO and appropriate concentrations of DMSO were added to Growth/Solvent Controls at 0 time. Plates were read at 0 time at 570 nm in the Molecular Devices plate reader to obtain compounds correction factors for insoluble or colored compounds. Plates were read again at 4 hrs.
# Compounds were assayed at a concentration of 170 μg/ml. Percent inhibition for each compound was calculated using the following formulae:
# Color correct=(O.D. 0 hr−Blank 0 hr)−(Solvent Control 0 hr−Blank 0 hr)
# % Inhibition=100−(O.D. test compound 4 hr−Blank 4 hr−color correct) divided by (O.D. growth/solvent control 4 hr−Blank 4 hr)
row,SMILES,inhibition at 170 µg/mL
1,CCCCNc1ccc2c(c1)-c1nc3cc(C(=O)NCCO)ccc3n1C(CCCNC(=N)N)C(=O)N2 (stereo not drawn) [6000#58223],97%
2,CCOC(=O)C1CCN(c2ccc3c(c2)-c2nc4cc(C(=O)N5CCCC(C(=O)OCC)C5)ccc4n2C(CCCNC(=N)N)C(=O)N3)CC1 (stereo not drawn) [6000#58445],97%
3,CCN(CC)c1ccc2c(c1)-c1nc3cc(C(=O)N4CCCC4)ccc3n1C(CCCNC(=N)N)C(=O)N2 (stereo not drawn) [6000#57519],100%
